Data taken from US10940150B2, “Thymine derivatives and quinazoline-dione derivatives for the inhibition of HSP27” (TECHNISCHE UNIVERSITAET DRESDEN, priority 2014, dated 2021).

What was measured:
HSP27 [1] = molecular target: T1, HSP27 (Homo sapiens, UniProt P04792); assay: SpeedScreen gel filtration binding test; conditions: PD SpinTraps G-25, detection by mass spectroscopy
Description: For the experimental validation of low-molecular-weight compounds which act as potential HSP27 inhibitors according to the in silico prediction, a method based on gel filtration was employed. The method for detecting molecular bonds using gel filtration was described in 2004 as “SpeedScreen” [Muckenschnabel et al., 2004] and was adapted to meet the requirements of the invention. […] For the separation, PD SpinTraps G-25 from GE Healthcare were used. During the 2-minute centrifugation at 800×g (according to operating instructions), these columns allow molecules with a molecular weight of greater than or equal to 5000 g/mol to pass through, while smaller molecules are retained in the matrix. The target protein HSP27 has a molecular weight of 27000 g/mol and therefore passes through the matrix. […] Non-bound low-molecular-weight compounds are retained by the matrix. Molecules that have passed through the matrix can then be detected by mass spectroscopy. This enables “binders” to be differentiated from “non-binders”. For the experimental validation of low-molecular-weight compounds which act as potential HSP27 inhibitors according to the in silico prediction, a method based on gel filtration was employed. […] Molecules that have passed through the matrix can then be detected by mass spectroscopy. […]

HSP27 [2] = molecular target: T1, HSP27; assay: Spectrophotometric protein aggregation assay (citrate synthase, HSP27 chaperone function); type: biochemical; conditions: 750 μmol/L; 43° C., 500 nm, 1.44 μmol/L CS, 481 nmol/L HSP27
Description: FIG. 1: a spectrophotometric protein aggregation assay at 43° C., a wavelength of 500 nm and a concentrations of the proteins: 1.44 μmol/L citrate synthase (CS), 481 nmol/L HSP27 (HSP) in a 40 mmol/L HEPES buffer (pH 7.4) during treatment with 14 or 28 μmol/L 2-(3-trichlorovinylphenylamino)-1,9-dihydropurin-6-one (CS+HSP+test substance no. 2), with 750 μmol/L BVDU (CS+HSP+BVDU) and without (CS+HSP; reference);
To measure the efficacy of the purine derivatives according to the invention, robust experiments for the chaperone function of the HSP27 protein were performed:
A known client protein (=substrate on which HSP27 acts as a chaperone) of HSP27 is citrate synthase. Citrate synthase is denatured when the temperature increases to 43° C. This heat denaturation is prevented or delayed by the presence of HSP27 [Jakob U, 1993]. By adding the novel active ingredients, their efficacy can thus be measured through the inhibition of the HSP27 chaperone function.
To determine the activity (i.e. the effect on the aggregation behaviour of the citrate synthase (CS) after thermal incubation) of 2-(3-trichlorovinylphenylamino)-1,9-dihydropurin-6-one in comparison to BVDU, four different batches containing 1.44 μmol/L CS, 481 nmol/L HSP27 (HSP) in a 40 mmol/L HEPES buffer (pH 7.4) were prepared and BVDU (750 μmol/L) or various concentrations of 2-(3-trichlorovinylphenylamino)-1,9-dihydropurin-6-one (14 μmol/L; 28 μmol/L) were added. The samples were then incubated at 43° C. and the aggregation behaviour of the CS was […] in a spectrometer (PerkinElmer LS55, PerkinElmer Inc.) at a wavelength of 500 nm.
It can be seen from FIG. 1 that the protein citrate synthase (graph CS alone) is denatured by increasing the temperature to 43° C. and forms aggregates. The aggregation is measured in the spectrometer at 500 nm (light scattering by protein aggregates). The presence of HSP27 (HSP) counteracts the aggregation (cf. graph, CS+HSP). Since the addition of the test substances (BVDU and 2-(3-trichlorovinylphenylamino)-1,9-dihydropurin-6-one) inhibits the chaperone function of HSP27, the activity of the respective test substance can be determined by measuring the aggregation behaviour of the CS.

RPMI-8226 cells = assay: Development of resistance to bortezomib in RPMI-8226 cells; type: cell-based
[3] = system: late-stage pancreatic cancer patients; conditions: cited from earlier work

T1 sequence (P04792 whole entry): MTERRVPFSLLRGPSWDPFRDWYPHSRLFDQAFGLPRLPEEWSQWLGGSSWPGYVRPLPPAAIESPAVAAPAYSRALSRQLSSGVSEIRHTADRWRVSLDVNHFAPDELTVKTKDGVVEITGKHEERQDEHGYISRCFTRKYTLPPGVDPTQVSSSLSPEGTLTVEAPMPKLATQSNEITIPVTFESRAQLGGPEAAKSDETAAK

Structure (SMILES): CC(=O)c1ccc2c(c1)N(CCCN(C)C)c1ccccc1S2 [Acepromazine]
- SpeedScreen: passage through Sephadex G-25 matrix bound to HSP27 (binder / non-binder) (HSP27 [1]): tested positively

Structure (SMILES): O=c1[nH]c(=O)n([C@H]2C[C@H](O)[C@@H](CO)O2)cc1/C=C/Br [BVDU, (E)-5-(2-bromovinyl)-2′-deoxyuridine]
- effect on chaperone function of HSP27 (CS aggregation) (HSP27 [2]): partially cancels the chaperone function of HSP27
- final cell count (RPMI-8226 cells; bortezomib 0.075-0.275 ng/ml + 30 μmol/L BVDU (FIG. 8a), without HSP27 inhibitor 510,000 cells/ml): 340,000 cells/ml
- final cell count (RPMI-8226 cells; bortezomib 0.1-0.3 ng/ml + 30 μM/L BVDU (FIG. 6a), without HSP27 inhibitor 950,000 cells/ml): 290,000 cells/ml
- final cell count (RPMI-8226 cells; bortezomib 0.1-0.3 ng/ml + 30 μmol/L BVDU (FIG. 7a), without HSP27 inhibitor 950,000 cells/ml): 290,000 cells/ml
- safety and efficacy in patients ([3]; administered dose of 500 mg/day, oral): works safely and efficiently
- tolerability in low-weight patients ([3]; increased administered dose of 760 mg/day): proved disadvantageous for low-weight patients
